Series [1] has as its system lsr operon (lsr-lacZ fusions). Put plainly: β-galactosidase assay of lsr::MudJ (lacZ) fusions. It is filed as cell-based, S. typhimurium. On the procedure:
Various S. typhimurium lsr::MudJ fusion strains were grown to late exponential phase in LB medium supplemented with AI-2 prepared by our in vitro method at an approximate concentration of 70 μM. This is roughly twice the concentration of AT-2 that we estimate to be present in S. typhimurium cell-free supernatants (not shown). As a control, we performed the same experiment with material from in vitro reactions carried out with SAH and Pfs enzyme in the absence of the LuxS enzyme. This reaction produces adenine and SRH. Homocysteine was added to this control mixture following the reaction to compensate for the homocysteine that would be produced by LuxS. Therefore, the only component absent from the control reaction was AI-2.
Cultures of S. typhimurium that had been grown overnight were diluted 1:100 into fresh LB and grown for 4 hours. For strains containing plasmids, cultures were diluted in LB supplemented with Amp. When necessary, AI-2 was synthesized in vitro and added to the growth media at the time of inoculation (Schauder et al., 2001). Cells from 1 ml of these cultures were harvested and resuspended in 1 ml Z buffer. P-galactosidase assays were performed using a microtitre plate assay, as described (Slauch and Silhavy, 1991). β-galactosidase units were calculated as (0.1*mOD420/min)/[OD600 of cells*Volume (ml)]. All assays were performed in triplicate.

Series [2] can be described thus: Stability characterisation of the signaling activity. The series is classed as physicochemical.
Series [3] has as its system V. harveyi luxN, luxS double mutant reporter strain. Put plainly: Luminescence response of V. harveyi luxN, luxS double mutant reporter. The settings on record: culture fluids of MM30 (AI-1) and BB152 (AI-2) as sources. It is filed as cell-based, Vibrio harveyi. The method, then:
Verification that the luxN, luxS Double Mutant Responds to AI-2. […] This was verified in a luminescence assay for response to V. harveyi AI-1 and AI-2. V. harveyi strain MM30 (luxS::Tn5) that is phenotypically AI-1^+, AI-2^−, and V. harveyi strain BB152 (luxM::Tn5) that is phenotypically AI-1^−, AI-2^+ were used as the sources of AI-1 and AI-2 respectively. The AI-1 and AI-2 present in culture fluids of these strains was tested for stimulation of light production of the V. harveyi luxN, luxS double mutant reporter strain. In this assay, autoinducer preparations from MM30, BB152 or sterile medium controls were added to the wells of microtiter plates, followed by the addition of the V. harveyi reporter strain. The resulting light production was monitored using a liquid scintillation counter in the chemiluminescence mode. Maximal stimulation of light production in the V. harveyi luxN, luxS reporter strain was compared to that produced by the Sensor 1^+, Sensor 2^− V. harveyi strain BB886 and the Sensor 1^−, Sensor 2^+V. harveyi strain BB170. These two V. harveyi strains are routinely used in this assay as reporters of AI-1 and AI-2 activity respectively.

For a further series, the system named is rck::MudJ fusion (SdiA). Kind of series: SdiA regulated rck::MudJ fusion assay. The series is classed as cell-based. The settings on record: AI-2 from E. coli or S. typhimurium; sdiA+ and sdiA− backgrounds. The method, then: For ftsQ regulation in E. coli, the plasmids pMS207 and pMS209 were transformed into E. coli strain MC4100 (Silhavy et al., 1984, supra), and the transformants were grown overnight in LB containing 100 mg/L ampicillin at 30° C. with aeration. For rck regulation, S. typhimurium strains BA1105 (rck::MudJ) and BA1305 (rck::MudJ sdiA) were grown overnight in LB containing 100 mg/L kanamycin at 30° C. with aeration. The overnight cultures were diluted 20-fold into fresh medium and grown for an additional 4.5 h. At this time, each culture was divided into five identical aliquots and 10% (v/v) of one of the following was added to each aliquot: LB, 0.4 M NaCl, […] osmotic shock fluids from S. typhimurium LT2, E. coli O157 or E. coli strain DH5 (negative control). The osmotic shock fluids were prepared as described above, following pregrowth of the S. typhimurium LT2 and E. coli in LB containing 0.5% glucose for 6h. The cell suspensions were incubated at 30° C. for 2 h, after which standard -galactosidase reactions were performed on the samples (Miller, A Short Course in Bacterial Genetics, Cold Spring Harbor Laboratory Press, 1992).

For series [4] the following is noted: S. typhimurium cell-free spent culture fluids; cited from earlier work.
The subject of a further series is metE-lacZ fusion. Kind of series: metE-lacZ fusion transcription. It is filed as cell-based, S. typhimurium. The method, then:
The insertion sites of the eight luxS regulated MudJ fusions were determined by arbitrary PCR amplification of the MudJ-chromosome fusion junctions, followed by BLAST database analysis (Caetano-Anolles, 1993; Altschul et al., 1990). One MudJ insertion was located in the metE gene. MetE is involved in the biosynthesis of methionine, that is a precursor of SAM (Weissbach and Brot, 1991). Specifically, MetE catalyzes the final step in methionine biosynthesis in the absence of vitamin B12. Transcription of metE is induced when the substrate homocysteine is available and when the intracellular concentration of methionine is low (Urbanowski and Stauffer, 1989). We reason that metE is not a true target of AI-2 regulation, but instead metE transcription is induced in the wild type luxS strain relative to the luxS null strain because homocysteine is produced during the generation of AI-2 in the LuxS^+ strain.

Series [5] relates to V. harveyi reporter strain BB170 (Sensor 1−, Sensor 2+). It is filed as cell-based, Vibrio harveyi. The method, then: Cell-free culture fluids from E. coli, S. typhimurium and V. harveyi strains were tested for the presence of signaling substances that could induce luminescence in the V. harveyi reporter strain BB170 or BB886. […] Positive control wells contained 10 μl of cell-free culture fluid from strain V. harveyi BB152 (Autoinducer-1^−, Autoinducer-2^+) or V. harveyi BB120 (Autoinducer-1^+, Autoinducer-2^+). Negative control wells contained 10 μl of sterile growth medium. The microtiter dishes were shaken in a rotary shaker at 175 rpm at 30° C.
The cell density was measured by diluting the same aliquots of cells used for measuring luminescence, spreading the dilutions onto solid LM medium, incubating the plates overnight at 30° C., and counting the resulting colonies the following day. […] Cell-free culture supernatants from V. harveyi or S. typhimurium strains were added to a final concentration of 10% (v/v) at the time of the first measurement. In control experiments, 10% (v/v) of AB medium, LB medium or LB medium containing 0.5% glucose was added instead of cell-free culture fluids.

“Also recorded” adds a separate entry of the source. Like-named read-outs stand apart in the source and are kept apart here.

Consider one compound from patent US7183099B2, “Inhibitors of autoinducer transporters” (Princeton University, priority 2001, dated 2007).

Regarding `CC(=O)C(=O)C(O)CO` (stereo not shown) [AI-2, 4,5-dihydroxy-2,3-pentanedione], the “expression of the lsr-lacZ fusions” value in series [1] (strains lacking luxS, 70 μM exogenous AI-2) is reported as “induces the expression of the lsr-lacZ fusions to levels above that when wild type luxS is present”; in series [1] (wild type luxS strains, exogenous AI-2 added) it was “additional stimulation of the expression of the lsr-lacZ fusions”. In addition, the results for the “heat resistance of the activity” value in series [2], in series [2] (listed as signaling activity) and in series [2] (listed as signaling compound) were “heat resistant to about 80 but not 100 °C”, “heat resistant to 80 but not 100 °C” and “heat resistant to 80 °C but not 100 °C”, respectively. Further, the “stability of the activity to acid and base” value in series [2] was “acid stable and base labile”; in series [2] (listed as signaling activity), “acid stabile and base labile”; in series [2] (listed as signaling compound), “acid stable and base labile”. Also, the “time the activity is stable in cell-free fluids” value in series [2] (cell-free culture supernatants and 0.4 M NaCl osmotic shock fluids, 30 °C) is reported as “at least 24 h”. Further, the “stimulation of light production by exogenous autoinducer” value in series [3] is on record as “stimulated to produce light”. The “change in β-galactosidase production of rck::MudJ” value with rck::MudJ fusion (SdiA) is listed as “No change”. The “stability of AI-2 in cell-free culture fluids” value in series [4] is reported as “stable for long periods of time; also recorded: remains active for long periods of time”. The “effect of exogenous AI-2 on transcription of the metE-lacZ fusion” value in the series on metE-lacZ fusion is reported as “did not affect the transcription of the metE-lacZ fusion”. Also, the signaling activity degraded entry in series [5] (0.4 M NaCl shock fluid activity incubated 2 h with S. typhimurium cells pre-incubated in 0.1 M NaCl) is given as “greater than 98%”. Moreover, in series [5] (in vitro prepared AI-2 added to S. typhimurium culture, chilled immediately), the “input AI-2 activity (induction of V. harveyi bioluminescence reporter)” value was 1000 fold. Moreover, the “stimulation in light production in the bioassay” value in series [5] (in vitro reaction: dialyzed LuxS− cell extract + SAM + LuxS protein, MW<5000 filtrate) is given as “over 500 fold”.
